Laboratory results published in patent US10118943B2, “Compounds and methods for inhibiting cell death” (Ramot at Tel-Aviv University Ltd., priority 2012, dated 2018).
“Also recorded” adds a separate entry of the source.

Columns and labels:
PC12 cells [1] = conditions: ZnCl2 400 μM, increasing concentrations of peptide
PC12 cells [2] = assay: PC12 cell survival assay, zinc toxicity, MTS (Example 1); conditions: 400 μM zinc, 4 hrs, peptide 10^−9M
Description: PC12 cells (Pheochromocytoma cells) (ATCC, Bethesda, Md., USA) were seeded at 3×10^4 cells/cm^2 on poly-L-Lysine coated plastic tissue culture dishes (Corning, Lowell, Mass., USA) to form an adherent monolayer. Cells were maintained in Dulbecco's modified Eagle's medium (DMEM) supplemented with 10% horse serum (HS), 5% fetal calf serum (FCS), 2 mM glutamine, 100 U/ml penicillin and […] streptomycin (Biological Industries, Beit Haemek, Israel). PC12 differentiation was induced by nerve growth factor (NGF, Sigma) at concentrations of 50 ng/ml by replacing half of the medium every other day until the cells acquired a differentiated morphology. Differentiated cells were defined as bearing two or more neurites with lengths equal to or more than twice the diameter of the cell body (P. Lamoureux et al., The Journal of cell biology 110, 71 (January, 1990)). The cells were incubated in 5% CO2 in a humidified incubator at 37° C. The cells were sub-cultured every 5 days at a 4:1 split ratio by pipetting. The medium was changed every 2 or 3 days after adhesion.
Transfections were performed using Lipofectamine RNAiMAX (Invitrogen). Transfection was carried out according to manufacturer's protocol. For rat MAPRE3 knockdown, PC12 cells or neurons were plated in growth medium without antibiotics at concentration of 10^4 cells/0.32 cm^2 such that they will be 30-50% confluent at the time of transfection. To obtain the highest transfection efficiency and low non-specific effects, siRNA transfection was performed in the following optimized conditions: 50 nM for neurons and 25 nM PC12 of each siRNA construct with 0.2 μl Lipofectamine RNAiMAX (Invitrogen) was added per well of the 96-well plate and scaled up for different 24 or 6-well plates, according to the manufacturer's instructions. The medium was changed one day after transfection. 48 and 72 hours later, cells were harvested to assay for gene knockdown at the RNA and protein levels.
The cells were incubated for 4 hrs at 37° C. 5% CO2. Survival was measured using the MTS assay.
Metabolic activity of cells was measured by the CellTiter 96® Aqueous Non-Radioactive Cell Proliferation kit in accordance with the manufacturer's instructions (Promega). The assay uses a colorimetric method for determining the number of viable cells employing a tetrazolium compound [3-(4,5-dimethylthiazol-2-yl)-5-(3-carboxymethoxyphenyl)-2-(4-sulfophenyl)-2H-tetrazolium, MTS] and an electron-coupling reagent, phenazine methosulfate (PMS). MTS is bio-reduced by cells into a formazan product that is detected at 490 nm. The conversion of MTS into the formazan form is accomplished by dehydrogenase enzymes found in metabolically active cells. Thus, the quantity of formazan product as measured by the amount of 490 nm absorbance is directly proportional to the number of living cells in culture (A. H. Cory, T. C. Owen, J. A. Barltrop, J. G. Cory, Cancer Commun 3, 207 (July, 1991)).

NAPVSKIPQ (synthetic novel peptide core sequence SKIP derived from hybrid microtubule end-binding protein 3 (EB3)- binding microtubule plus-end tracking proteins (+TIPs) and activity-dependent neurotrophic factor (ADNF) active core site (NAP))
protection against zinc-induced cell death (PC12 cells [1]): protected by the addition of SKIP, over a wide range of concentrations | protection against cell death induced by zinc toxicity (MTS survival) (PC12 cells [2]): provided protection against zinc toxicity; also recorded: significantly increased survival | protection against cell death induced by zinc toxicity (MTS survival) (PC12 cells [2]; listed as SKIP): significantly increased survival
